Measurements from publication PMC4450297, “Screening Active Compounds from Garcinia Species Native to China Reveals Novel Compounds Targeting the STAT/JAK Signaling Pathway” (BioMed Research International, 2015).

How the values were obtained:
CHP212 = test: Cell proliferation assay (CellTiter-Glo); format: cell-based; conditions: Homo sapiens, CHP-212, CHP212 cells, 72 h
Description: (§1) All cells were obtained from the cell bank of the American Type Culture Collection (ATCC) and cultured in the supplier's recommended media supplemented with 10% FBS. The cell panel screen was measured using the CellTiter-Glo assay (Promega, Madison, WI) following a standard protocol. Briefly, cancer cells were seeded in 96-well plates and cultured overnight at 37°C with or without 5% CO2 in an incubator. Each compound was dissolved with limited DMSO and diluted to a certain concentration with culture medium and then added to the corresponding well of the cell plate. The final concentration of compound was 20 μM. The control cells (without treatment) received the same amount of DMSO and were incubated under the same conditions. After 72 h cultivation, 100 μL of the CellTiter-Glo reagent was added directly to each well for 10-minute incubation. The plate was then read on a FlexStation 3 microplate luminometer (Molecular Devices, USA) to monitor the luminescence signal generated by the luciferase-catalyzed reaction of luciferin and ATP. The percent of growth inhibition was calculated using the following formula: (untreated cells − treated cells)/(untreated cells − background without cells) ∗ 100.
(§2) For proliferation assays, the CellTiter-Glo assay (Promega, Madison, WI) was used to evaluate the proliferation of cancer cells treated with test compounds as described above. Each compound was dissolved in limited DMSO and diluted to various concentrations with culture medium and then added to the corresponding wells. A dose-response curve was plotted, and the IC50 was calculated using XLfit software.

NCI-H838 = test: Cell proliferation assay (CellTiter-Glo); format: cell-based; conditions: Homo sapiens, NCI-H838 cells, 72 h
Description: as §1, §2

SW954 = test: Cell proliferation assay (CellTiter-Glo); format: cell-based; conditions: Homo sapiens, SW 954, SW954 cells, 72 h
Description: as §1, §2

NCI-H1993 = test: Cell proliferation assay (CellTiter-Glo); format: cell-based; conditions: Homo sapiens, NCI-H1993 cells, 72 h
Description: as §1, §2

A549 = test: Cell proliferation assay (CellTiter-Glo); format: cell-based; conditions: Homo sapiens, A549 cells, 72 h
Description: as §1, §2

SW1353 = test: Cell proliferation assay (CellTiter-Glo); format: cell-based; conditions: Homo sapiens, SW1353 cells, 72 h
Description: as §1, §2

HuVec = test: Cell proliferation assay (CellTiter-Glo), control cell line; format: cell-based; conditions: Homo sapiens, 72 h
Description: as §1, §2

NCI-H1650 = test: Cell proliferation assay (CellTiter-Glo); format: cell-based, human; conditions: Homo sapiens, NCI-H1650, 72 h, NCI-H1650 cells, 20 μM to 0.009 μM in serial 3-fold dilutions
Description: as §1, §2

[1] = tested on: STAT3 activation in multiple cancer cell lines; parameters: method as in PMID 21490133; conditions: cited from earlier work

Row | SMILES | IC50 (CHP212) | IC50 (NCI-H838) | IC50 (SW954) | IC50 (NCI-H1993) | IC50 (A549) | IC50 (SW1353) | IC50 (HuVec) | IC50 (NCI-H1650) | STAT3 activation upon IL-6 treatment [1]
1 | CN[C@@H]1C[C@H]2O[C@@](C)([C@@H]1OC)n1c3ccccc3c3c4c(c5c6ccccc6n2c5c31)C(=O)NC4 [Staurosporine, staurosporine, reference compound] | 4 ± 1 nM | 11 ± 4 nM | 6 ± 1 nM | 21 ± 7 nM | 8 ± 2 nM | 4 ± 1 nM | 4 ± 2 nM | 22 ± 4 nM | –
2 | CC(C)=CCC[C@]1(C)C=Cc2c(O)c3c(c(CC=C(C)C)c2O1)O[C@]12C(=C[C@@H]4C[C@H]1C(C)(C)O[C@@]2(C/C=C(/C)C(=O)O)C4=O)C3=O [gambogic acid] | – | – | – | – | – | – | – | – | able to inhibit STAT3 activation
